In PubChem BioAssay AID1645868 (Buhrlage Lab, Dana-Farber Cancer Institute and Novartis …, 2021):
The source made the active and inactive calls.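 How the source made its calls: active means maximal percent inhibition of the deubiquitinase OTUD3 of at least 30% across the tested doses; inactive means the rest.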

target: OTU domain-containing protein 3 (Homo sapiens) (UniProt Q5T2D3); assay: Validation of screening hits, potency titration, in vitro enzymatic, OTU domain-containing protein 3 DUB inhibitors (AID 1645868); settings: purified OTUD3, ubiquitin-rhodamine cleavage fluorescence, 2 h
Sequence (Q5T2D3 whole entry, looked up, the tested form may be a part): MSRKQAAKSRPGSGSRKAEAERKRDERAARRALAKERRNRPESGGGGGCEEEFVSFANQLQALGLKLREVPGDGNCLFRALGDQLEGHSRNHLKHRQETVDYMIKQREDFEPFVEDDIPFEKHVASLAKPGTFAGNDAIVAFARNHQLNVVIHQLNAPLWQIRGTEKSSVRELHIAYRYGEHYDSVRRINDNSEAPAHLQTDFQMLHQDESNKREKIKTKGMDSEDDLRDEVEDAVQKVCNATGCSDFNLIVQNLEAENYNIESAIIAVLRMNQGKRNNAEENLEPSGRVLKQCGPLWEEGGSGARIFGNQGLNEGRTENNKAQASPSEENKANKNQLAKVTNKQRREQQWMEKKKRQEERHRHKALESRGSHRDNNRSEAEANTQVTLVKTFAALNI

| SMILES | IC50 |
| --- | --- |
| CCCCN(CC)c1ncnc2c1sc1nc(-c3ccco3)c3c(c12)CC(C)(C)OC3 | > 50 µM (inactive) |
| Nc1ncnc(SCc2ccc(Cl)cc2)n1 | 29.3 µM |
| O=C(Nc1ccc2c(c1)OCCO2)c1cc(CN2CCCC2)on1 | > 50 µM (inactive) |
| CC(=O)c1sc(NC(=O)c2ccccc2-c2ccc(C(F)(F)F)cc2)nc1C | 41.7 µM |
| CCOc1ccc2c(c1)c(=O)c(C(=O)c1ccccc1)cn2CC(=O)Nc1ccccc1 | 19.4 µM |
| COc1ccc(/C=C\c2nccc3c2[nH]c2ccccc23)cc1 | > 50 µM (inactive) |
| O=C(Nc1ccccc1-c1nc2ccccc2[nH]1)c1sc2ccccc2c1Cl | 4.1 µM |
| COc1ccc(Cn2c(=O)[nH]c3cc(C(=O)NCCCN4CCN(c5cccc(Cl)c5)CC4)ccc3c2=O)cc1 | 10 µM |
| Cc1c(Cl)cccc1NC(=O)Cn1c(=O)c2ccccc2n2nncc12 | > 50 µM (inactive) |
| CC1CCCN1C(=O)c1ccn(-c2ccc3ccc(-c4cccnc4)cn23)n1 (stereo unspecified) | > 50 µM (inactive) |
| CCOC(=O)c1cnn(-c2ccc(C(=O)Nc3ccc(C)c(Cl)c3)cc2)c1N | > 50 µM (inactive) |
| COc1ccc(NC2c3ccccc3C(=O)N2c2ccccn2)cc1 (stereo unspecified) | > 50 µM (inactive) |
| CCc1ccc(OCc2nnc(SCC(=O)Nc3ccccc3OC)n2Cc2ccccc2)cc1 | > 50 µM (inactive) |
| COc1ccc(/C=C/C(=O)N2CCc3ccccc32)cc1S(=O)(=O)N1CCOCC1 | > 50 µM (inactive) |
| CC(C)c1cc(Nc2cccc(F)c2)n2nc(-c3cccnc3)nc2n1 | > 50 µM (inactive) |
| COc1ccccc1NS(=O)(=O)c1cccc(NC(=O)CCc2nc3ccccc3s2)c1 | > 50 µM (inactive) |
| O=C(Nc1ccc(F)c(Cl)c1)c1ccc(N2CCCCS2(=O)=O)cc1Cl | > 50 µM (inactive) |
| COc1ccc(C(C)=O)cc1CC(=O)Nc1nc2ccccc2[nH]1 | > 50 µM (inactive) |
| COc1cccc(CCNC(=O)CCn2c(=O)c(C)nc3cc(C)c(C)cc32)c1 | > 50 µM (inactive) |
| O=C(NCc1ccc2c(c1)OCO2)c1nnc(Cc2ccc(F)cc2)o1 | > 50 µM (inactive) |
| CC1=C2C(=NCCN1)C(=O)N(c1ccccc1)C2c1cccnc1 (stereo unspecified) | > 50 µM (inactive) |
| COc1cccc(NC(=O)Cc2sc(Nc3cc(C)cc(C)c3)nc2O)c1 | 22.4 µM |
| CC(c1ccccc1)c1nc(-c2ccc(=O)[nH]c2)no1 (stereo unspecified) | > 50 µM (inactive) |
| COc1ccc(Cn2cnc3c([nH]c4ccc(Br)cc43)c2=O)cc1 | > 50 µM (inactive) |

| SMILES | IC50 |
| --- | --- |
| Cc1ccccc1C(=O)c1ccc(C(=O)NC2CCCCCC2)[nH]1 | 20.7 µM |
| O=C(NCCn1ccc2ccccc21)c1cc2ccccc2oc1=O | > 50 µM (inactive) |
| Nc1c(-c2ccc(Cl)cc2)cnc2nc(Sc3ncc(C(F)(F)F)cc3Cl)nn12 | > 50 µM (inactive) |
| O=c1[nH]c(C2CCN(S(=O)(=O)c3ccc(S(=O)(=O)NC4CCCC4)cc3)CC2)nc2c1nnn2Cc1cccc(Cl)c1 | > 50 µM (inactive) |
| Clc1cncc(Oc2nc(-c3cccnc3)nc3ccccc23)c1 | > 50 µM (inactive) |
| CCN(CC)c1nc(F)c2c(c1F)S(=O)(=O)CCN2Cc1ccccc1 | > 50 µM (inactive) |
| Cc1cc(=O)oc2cc(OCC(=O)Nc3cc(Cl)ccc3N3CCOCC3)ccc12 | > 50 µM (inactive) |
| CCc1cc2cc3c(cc2nc1SCC(=O)Nc1cccc(C(C)=O)c1)OCO3 | 26.5 µM |
| O=C1c2ccccc2NC2(C(=O)Nc3ccc(Br)cc32)N1c1ccccc1 (stereo unspecified) | > 50 µM (inactive) |
| Cc1cc(=O)n(CC(=O)Nc2ccccc2C)c(Nc2ccc(F)cc2)n1 | 23.3 µM |
| O=[N+]([O-])c1ccc2c(c1)nc1n2CCN(Cc2ccco2)C1 | > 50 µM (inactive) |
| COc1ccc(NS(=O)(=O)c2cc(NC(=O)CCc3nc4ccccc4s3)ccc2C)cc1 | 31.7 µM |
| COc1ccc(CN2C[C@@H]3C[C@]3(c3ccccc3)C(=O)c3ncccc32)cc1 | > 50 µM (inactive) |
| CCn1cc(NC(=O)CN2CCC3(CC=CCOC3)CC2)c(C)n1 | > 50 µM (inactive) |
| O=S(=O)(c1cccc(F)c1)N1CCc2nc3ccccc3n2CC1 | 17.1 µM |
| COc1ccc(-c2nc3n(n2)C(c2cccc(O)c2)C2=C(CCCC2=O)N3)cc1 (stereo unspecified) | > 50 µM (inactive) |
| COc1ccc(OC)c(NC(=O)CNC(=O)c2cc3c(OC)cccc3[nH]2)c1 | > 50 µM (inactive) |
| CCOc1ccc2c(c1)c(=O)c(C(=O)c1ccc(C)cc1)cn2CC(=O)Nc1ccc(OC)cc1 | > 50 µM (inactive) |
| CCn1c(Cn2cccn2)nc2cc(NC(=O)c3ccc(F)cc3)ccc21 | > 50 µM (inactive) |
| Cc1cc(C)c(NC(=O)CSc2nc3nccnc3c(=O)n2Cc2ccccc2Cl)c(C)c1 | > 50 µM (inactive) |
| Cc1cc(-c2nnc(SCC(=O)Nc3ccc(Br)c(C)c3)n2N)n[nH]1 | 17.3 µM |
| O=C1N[C@@H](Cc2ccccc2)C(=O)N2[C@H]3Nc4ccccc4[C@@]3([C@]34C[C@H]5C(=O)N[C@@H](Cc6ccccc6)C(=O)N5[C@H]3Nc3ccccc34)C[C@@H]12 | 47.6 µM |
| Cc1nn(Cc2ccccc2)c(Cl)c1C(=O)NC1CCCc2ccccc21 (stereo unspecified) | > 50 µM (inactive) |
| O=C1N(Cc2ccc(F)cc2)CCN1c1ccc2c(c1)CCC2 | > 50 µM (inactive) |

| SMILES | IC50 |
| --- | --- |
| O=C(Nc1ccc(F)cc1F)c1csc(-c2ccccc2)n1 | 34.7 µM |
| Cc1nn(-c2ccc([N+](=O)[O-])cc2)c(C)c1-c1nc2ccccc2[nH]1 | 24.3 µM |
| CCOc1ccc(NS(=O)(=O)c2ccc(NC(=O)Nc3ccccc3)cc2)cc1 | 37.2 µM |
| O=C(c1ccc2cc[nH]c2c1)N1CCC(Nc2cccnc2)C1 (stereo unspecified) | > 50 µM (inactive) |
| Cc1ccc(NC(=O)c2ccc3nn(CC(=O)Nc4ccc(F)cc4F)c(=O)n3c2)cc1 | > 50 µM (inactive) |
| Cc1ccccc1-c1noc(-c2ccccc2OCC(=O)NC(C)C)n1 | > 50 µM (inactive) |
| CCn1c(SCC(=O)c2c(N)n(CC(C)C)c(=O)n(C)c2=O)nnc1-c1ccccc1 | 25.6 µM |
| O=C(CNS(=O)(=O)c1ccc(F)cc1)N1CCCC(c2nnc3ccccn23)C1 (stereo unspecified) | > 50 µM (inactive) |
| O=C(COC(=O)c1ccc(CN2CCCC2=O)cc1)c1ccc2c(c1)OCCO2 | > 50 µM (inactive) |
| O=C(CSc1ncnc2c1oc1ccccc12)NC1CCCC1 | 24.4 µM |
| Cc1ccc(S(=O)(=O)NCC(=O)OC(C(=O)Nc2cc(C)ccc2C)c2ccccc2)cc1 (stereo unspecified) | > 50 µM (inactive) |
| CC(C)CC(NC(=O)c1ccc(Cl)cc1Cl)c1nc2ccccc2[nH]1 (stereo unspecified) | > 50 µM (inactive) |
| CC(=O)N1CCc2cc(S(=O)(=O)NCCC(=O)Nc3cccc(C)c3C)ccc21 | 23.3 µM |
| CC1CC(=O)Nc2ccccc2N1S(=O)(=O)c1ccc(C#N)cc1 (stereo unspecified) | > 50 µM (inactive) |
| COCCCn1c(C(=O)Nc2ccccc2OC)cc2c(=O)n3ccccc3nc21 | > 50 µM (inactive) |
| COc1ccc(C(=O)Nc2n[nH]c(C)c2-c2cccc(C)c2)c(OC)c1 | 28.7 µM |
| CC(=O)N1Cc2ccccc2CC2(CCCN(CC3CCOCC3)C2)C1 (stereo unspecified) | > 50 µM (inactive) |
| c1coc(CNc2nc(Nc3cccc4ccccc34)nc3ccccc23)c1 | > 50 µM (inactive) |
| COc1ccc(CC(=O)NCc2ccc3[nH]c(C)cc3c2)cc1 | > 50 µM (inactive) |
| Cc1ccc2nc(-c3cccc(-c4nc5ccc(C)cc5[nH]4)n3)[nH]c2c1 | > 50 µM (inactive) |
| CCN(CC)c1cc(C)c2cc(NC(=O)c3ccncc3)ccc2n1 | > 50 µM (inactive) |
| Cc1ccc(NC(=O)c2cc(-c3cccnc3)n(-c3ccccc3)n2)nc1 | > 50 µM (inactive) |
| COc1cc(C)c(NC(=O)c2cc(-c3ccccc3)c(N3CCOCC3)s2)cc1OC | > 50 µM (inactive) |
| Cc1nc(-c2ccc(C(=O)NCc3ccc(F)cc3)cc2)cs1 | > 50 µM (inactive) |

| SMILES | IC50 |
| --- | --- |
| CCCNC(=O)c1ccn(-c2ccc3ccc(-c4cnn(C)c4)cn23)n1 | > 50 µM (inactive) |
| CC(=O)O[C@H]1[C@]2(O)C[C@]34SS[C@](CO)(C(=O)N3[C@@H]2C[C@@]12O[C@@H](C)C(C)(C)C2=O)N(C)C4=O | > 50 µM (inactive) |
| O=C(Cc1ccc(Cl)c(Cl)c1)OCC(=O)c1c[nH]c2ccccc12 | > 50 µM (inactive) |
| O=C(OCc1ccc(Br)cc1)c1ccc2ccccc2n1 | > 50 µM (inactive) |
| O=C(NCc1ccc(-c2nc3cnccc3o2)cc1)c1ccccc1F | 20.5 µM |
| N#Cc1ccc(COC(=O)c2ccc3ccccc3n2)cc1 | > 50 µM (inactive) |
| O=C(CC(C(=O)Nc1ccc2c(c1)OCO2)C(=O)c1ccccc1)Nc1ccc(Cl)cc1F (stereo unspecified) | 15.4 µM |
| Cc1ccccc1NC(=O)c1ccc(N2CCCCC2)nn1 | > 50 µM (inactive) |
| Cc1cccc(O)c1-c1nc2c(-c3nc4c(C(=O)O)cccc4o3)cccc2o1 | > 50 µM (inactive) |
| COc1ccc(C2SCC(=O)Nc3c2c(=O)[nH]n3C2CCCCC2)cc1 (stereo unspecified) | 23.3 µM |
| COc1ccccc1-c1ccc(SCC(=O)Nc2ccc3c(c2)OCCO3)nn1 | > 50 µM (inactive) |
| Fc1ccc(Oc2nc(CN3CCOCC3)nc3sc4c(c23)CCCC4)c(Cl)c1 | > 50 µM (inactive) |
| CC(Sc1n[nH]c2nc3ccccc3n12)C(=O)Nc1ccc2c(c1)OCCO2 (stereo unspecified) | > 50 µM (inactive) |
| Clc1cc2nc(N3CCN(c4ccccn4)CC3)c3nncn3c2cc1Cl | 4.78 µM |
| CC1Cc2ccccc2N1C(=O)Cn1c(=O)cc(O)c2ccccc21 (stereo unspecified) | > 50 µM (inactive) |
| CC(C)N1C[C@@H]2C[C@H](NS(=O)(=O)c3cccc(C#N)c3)CN2Cc2ccccc21 | > 50 µM (inactive) |
| COCC(C)Nc1ncc(-c2cnccn2)c(-c2ccc(C)s2)n1 (stereo unspecified) | > 50 µM (inactive) |
| CNC(=O)C1CN(C(=O)c2ccc(OC)cc2)CC12CCCC2 (stereo unspecified) | > 50 µM (inactive) |
| CCn1c(SCC(=O)N2c3ccccc3CC2C)nnc1-c1ccc2c(c1)OCCO2 (stereo unspecified) | > 50 µM (inactive) |
| Cc1ccccc1C(=O)OCCN1C(=O)c2cccc3c(N4CCOCC4)ccc(c23)C1=O | > 50 µM (inactive) |
| Cc1ccccc1Cn1ccc(NC(=O)c2noc(C)c2[N+](=O)[O-])n1 | > 50 µM (inactive) |
| CCOc1ccc(-n2c(C)cc(/C=C(\C#N)c3nc4ccccc4[nH]3)c2C)cc1 | > 50 µM (inactive) |
| O=C(Nc1ccc2c(c1)OCCO2)Nc1nnc(CC(=O)N2CCCCC2)s1 | > 50 µM (inactive) |
| CCn1c(CN2CCCC(c3nc(-c4cccnc4)n[nH]3)C2)nc2ccccc21 (stereo unspecified) | > 50 µM (inactive) |
